In ChEMBL document CHEMBL1147293, “Immunosuppressive compounds from a deep water marine sponge, Agelas flabelliformis” (J Nat Prod, 1989):

How the values were obtained:
[1] = system: Splenocyte; test: Immunosuppressive activity against concanavalin A-activated mouse splenocytes assessed as [3H]thymidine incorporation at 15.6 ug/ml after 72 hrs by liquid scintillation counting; type: functional
[2] = Cytotoxicity against mouse splenocytes assessed as cell viability at 7.8 ug/ml after 88 hrs by MTT assay; type: cell-based, Splenocyte; details: read-out: Activity
[3] = system: Splenocyte; test: Immunosuppressive activity against mouse splenocytes assessed as [3H]thymidine incorporation at 3.9 ug/ml after 88 hrs by liquid scintillation counting; type: functional
[4] = system: Splenocyte; test: Immunosuppressive activity against mouse splenocytes assessed as [3H]thymidine incorporation at 2.0 ug/ml after 88 hrs by liquid scintillation counting; type: functional
[5] = Cytotoxicity against mouse splenocytes assessed as cell viability at 125 ug/ml after 88 hrs by MTT assay; type: cell-based, Splenocyte; details: read-out: Activity
[6] = system: Splenocyte; test: Immunosuppressive activity against mouse splenocytes assessed as [3H]thymidine incorporation at 15.6 ug/ml after 88 hrs by liquid scintillation counting; type: functional
[7] = system: Splenocyte; test: Immunosuppressive activity against concanavalin A-activated mouse splenocytes assessed as [3H]thymidine incorporation at 31.3 ug/ml after 72 hrs by liquid scintillation counting; type: functional
[8] = Cytotoxicity against mouse splenocytes assessed as cell viability at 15.6 ug/ml after 88 hrs by MTT assay; type: cell-based, Splenocyte; details: read-out: Activity
[9] = system: Splenocyte; test: Immunosuppressive activity against mouse splenocytes assessed as [3H]thymidine incorporation at 125 ug/ml after 88 hrs by liquid scintillation counting; type: functional
[10] = system: Splenocyte; test: Immunosuppressive activity against mouse splenocytes assessed as [3H]thymidine incorporation at 7.8 ug/ml after 88 hrs by liquid scintillation counting; type: functional
[11] = system: Splenocyte; test: Immunosuppressive activity against concanavalin A-activated mouse splenocytes assessed as [3H]thymidine incorporation at 7.8 ug/ml after 72 hrs by liquid scintillation counting; type: functional
[12] = Cytotoxicity against mouse splenocytes assessed as cell viability at 0.5 ug/ml after 88 hrs by MTT assay; type: cell-based, Splenocyte; details: read-out: Activity
[13] = system: Splenocyte; test: Immunosuppressive activity against mouse splenocytes assessed as [3H]thymidine incorporation at 0.5 ug/ml after 88 hrs by liquid scintillation counting; type: functional
[14] = system: Splenocyte; test: Immunosuppressive activity against mouse splenocytes assessed as [3H]thymidine incorporation at 31.3 ug/ml after 88 hrs by liquid scintillation counting; type: functional
[15] = Cytotoxicity against mouse splenocytes assessed as cell viability at 500 ug/ml after 88 hrs by MTT assay; type: cell-based, Splenocyte; details: read-out: Activity
[16] = system: Splenocyte; test: Immunosuppressive activity against concanavalin A-activated mouse splenocytes assessed as [3H]thymidine incorporation at 1.0 ug/ml after 72 hrs by liquid scintillation counting; type: functional
[17] = system: Splenocyte; test: Immunosuppressive activity against concanavalin A-activated mouse splenocytes assessed as [3H]thymidine incorporation at 250 ug/ml after 72 hrs by liquid scintillation counting; type: functional
[18] = system: Splenocyte; test: Immunosuppressive activity against mouse splenocytes assessed as [3H]thymidine incorporation at 500 ug/ml after 88 hrs by liquid scintillation counting; type: functional
[19] = system: Splenocyte; test: Immunosuppressive activity against concanavalin A-activated mouse splenocytes assessed as [3H]thymidine incorporation at 62.5 ug/ml after 72 hrs by liquid scintillation counting; type: functional
[20] = system: Splenocyte; test: Immunosuppressive activity against concanavalin A-activated mouse splenocytes assessed as [3H]thymidine incorporation at 125 ug/ml after 72 hrs by liquid scintillation counting; type: functional
[21] = system: Splenocyte; test: Immunosuppressive activity against mouse splenocytes assessed as [3H]thymidine incorporation at 1.0 ug/ml after 88 hrs by liquid scintillation counting; type: functional
[22] = Cytotoxicity against mouse splenocytes assessed as cell viability at 62.5 ug/ml after 88 hrs by MTT assay; type: cell-based, Splenocyte; details: read-out: Activity
[23] = system: Splenocyte; test: Immunosuppressive activity against mouse splenocytes assessed as [3H]thymidine incorporation at 250 ug/ml after 88 hrs by liquid scintillation counting; type: functional
[24] = system: Splenocyte; test: Immunosuppressive activity against concanavalin A-activated mouse splenocytes assessed as [3H]thymidine incorporation at 500 ug/ml after 72 hrs by liquid scintillation counting; type: functional
[25] = Cytotoxicity against mouse splenocytes assessed as cell viability at 0.3 ug/ml after 88 hrs by MTT assay; type: cell-based, Splenocyte; details: read-out: Activity
[26] = Cytotoxicity against mouse splenocytes assessed as cell viability at 3.9 ug/ml after 88 hrs by MTT assay; type: cell-based, Splenocyte; details: read-out: Activity
[27] = system: Splenocyte; test: Immunosuppressive activity against concanavalin A-activated mouse splenocytes assessed as [3H]thymidine incorporation at 0.3 ug/ml after 72 hrs by liquid scintillation counting; type: functional
[28] = Cytotoxicity against mouse splenocytes assessed as cell viability at 31.3 ug/ml after 88 hrs by MTT assay; type: cell-based, Splenocyte; details: read-out: Activity
[29] = Cytotoxicity against mouse splenocytes assessed as cell viability at 250 ug/ml after 88 hrs by MTT assay; type: cell-based, Splenocyte; details: read-out: Activity
[30] = system: Splenocyte; test: Immunosuppressive activity against concanavalin A-activated mouse splenocytes assessed as [3H]thymidine incorporation at 2.0 ug/ml after 72 hrs by liquid scintillation counting; type: functional
[31] = Cytotoxicity against mouse splenocytes assessed as cell viability at 2.0 ug/ml after 88 hrs by MTT assay; type: cell-based, Splenocyte; details: read-out: Activity
[32] = Cytotoxicity against mouse splenocytes assessed as cell viability at 1.0 ug/ml after 88 hrs by MTT assay; type: cell-based, Splenocyte; details: read-out: Activity
[33] = system: Splenocyte; test: Immunosuppressive activity against mouse splenocytes assessed as [3H]thymidine incorporation at 62.5 ug/ml after 88 hrs by liquid scintillation counting; type: functional
[34] = system: Splenocyte; test: Immunosuppressive activity against concanavalin A-activated mouse splenocytes assessed as [3H]thymidine incorporation at 0.5 ug/ml after 72 hrs by liquid scintillation counting; type: functional
[35] = system: Splenocyte; test: Immunosuppressive activity against concanavalin A-activated mouse splenocytes assessed as [3H]thymidine incorporation at 3.9 ug/ml after 72 hrs by liquid scintillation counting; type: functional
[36] = system: Splenocyte; test: Immunosuppressive activity against mouse splenocytes assessed as [3H]thymidine incorporation at 0.25 ug/ml after 88 hrs by liquid scintillation counting; type: functional
[37] = Cytotoxicity against mouse splenocytes assessed as cell viability at 0.25 ug/ml after 88 hrs by MTT assay; type: cell-based, Splenocyte; details: read-out: Activity

SMILES	viability at 88 h, 7.8 ug/ml [2] [%]	Activity [3] [%]	Activity [4] [%]	viability at 88 h, 125 ug/ml [5] [%]	Activity [6] [%]	viability at 88 h, 15.6 ug/ml [8] [%]	Activity [9] [%]	Activity [10] [%]	viability at 88 h, 0.5 ug/ml [12] [%]	Activity [13] [%]	Activity [14] [%]	viability at 88 h, 500 ug/ml [15] [%]	Activity [18] [%]	Activity [21] [%]	viability at 88 h, 62.5 ug/ml [22] [%]	Activity [23] [%]	viability at 88 h, 3.9 ug/ml [26] [%]	viability at 88 h, 31.3 ug/ml [28] [%]	viability at 88 h, 250 ug/ml [29] [%]	viability at 88 h, 2 ug/ml [31] [%]	other results
O=C(O)c1cc(Br)c(Br)[nH]1	99	59	31	12	100	66	100	40	113	0	100	10	100	13	27	100	80	27	0	99	Activity [1]: 84%; Activity [7]: 83%; Activity [11]: 64%; Activity [16]: 43%; Activity [17]: 99%; Activity [19]: 83%; Activity [20]: 83%; Activity [24]: 83%; viability at 88 h, 0.3 ug/ml [25]: 100%; Activity [27]: 50%; Activity [30]: 29%; viability at 88 h, 1 ug/ml [32]: 95%; Activity [33]: 100%; Activity [34]: 39%; Activity [35]: 70%
CC(C)CCC[C@@H](C)[C@H]1CC[C@H]2C3=C(CC[C@]12C)[C@@]1(C)CC[C@H](O)[C@@H](C)[C@@H]1CC3	80	100	100	28	100	92	100	100	118	46	100	6	100	81	72	100	99	85	10	77	Activity [36]: 0%; viability at 88 h, 1 ug/ml [32]: 97%; Activity [33]: 100%; viability at 88 h, 0.25 ug/ml [37]: 104%
